Assays:
[1] = molecular target: Calcium/calmodulin-dependent protein kinase type 1D (Homo sapiens) (UniProt Q8IU85); test: Inhibition of human recombinant CaMK1d at 500 nM in presence of ATP by radiometric assay relative to control
[2] = molecular target: Cyclin-dependent kinase 4 (Homo sapiens) (UniProt P11802); test: Inhibition of human recombinant CDK4 at 500 nM in presence of ATP by radiometric assay relative to control
[3] = molecular target: Mitogen-activated protein kinase kinase kinase 9 (Homo sapiens) (UniProt P80192); test: Inhibition of human recombinant MLK1 at 500 nM in presence of ATP by radiometric assay relative to control
[4] = molecular target: Macrophage-stimulating protein receptor (Homo sapiens) (UniProt Q04912); test: Inhibition of human recombinant RON at 500 nM related to control ULK1
[5] = molecular target: Tyrosine-protein kinase Tec (Homo sapiens) (UniProt P42680); test: Inhibition of human recombinant TEC at 500 nM related to control ULK1
[6] = molecular target: Cyclin-dependent kinase 18 (Homo sapiens) (UniProt Q07002); test: Inhibition of human recombinant PCTAIRE3 at 500 nM related to control ULK1
[7] = molecular target: Protein kinase C iota type (Homo sapiens) (UniProt P41743); test: Inhibition of human recombinant PKCi at 500 nM related to control ULK1
[8] = molecular target: Activated CDC42 kinase 1 (Homo sapiens) (UniProt Q07912); test: Inhibition of human recombinant ACK at 500 nM related to control ULK1
[9] = molecular target: Transient receptor potential cation channel subfamily M member 7 (Homo sapiens) (UniProt Q96QT4); test: Inhibition of human recombinant ChaK1 at 500 nM in presence of ATP by radiometric assay relative to control
[10] = molecular target: Serine/threonine-protein kinase 32B (Homo sapiens) (UniProt Q9NY57); test: Inhibition of human recombinant YANK2 at 500 nM in presence of ATP by radiometric assay relative to control
[11] = molecular target: T1, MAPK/MAK/MRK overlapping kinase (Homo sapiens) (UniProt Q9UQ07); test: Inhibition of human recombinant MOK at 500 nM related to control ULK1
T1 sequence (whole entry): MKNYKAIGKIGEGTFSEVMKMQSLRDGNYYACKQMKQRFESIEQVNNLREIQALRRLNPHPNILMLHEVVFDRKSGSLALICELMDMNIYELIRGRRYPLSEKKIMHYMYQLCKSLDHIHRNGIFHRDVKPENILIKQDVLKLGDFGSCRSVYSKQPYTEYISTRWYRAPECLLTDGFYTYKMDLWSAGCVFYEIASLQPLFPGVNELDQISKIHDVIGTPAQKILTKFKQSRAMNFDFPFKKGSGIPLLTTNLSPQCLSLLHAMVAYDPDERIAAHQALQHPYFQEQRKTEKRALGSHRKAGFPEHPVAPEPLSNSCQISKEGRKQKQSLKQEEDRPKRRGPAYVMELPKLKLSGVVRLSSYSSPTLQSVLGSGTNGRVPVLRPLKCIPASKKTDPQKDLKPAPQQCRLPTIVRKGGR

[12] = molecular target: Cyclin-dependent kinase 3 (Homo sapiens) (UniProt Q00526); test: Inhibition of human recombinant CDK3 at 15 nM in presence of ATP by radiometric assay relative to control
[13] = molecular target: Serine/threonine-protein kinase PLK1 (Homo sapiens) (UniProt P53350); test: Inhibition of human recombinant PLK1 at 15 nM related to control ULK1
[14] = molecular target: Calcium/calmodulin-dependent protein kinase kinase 1 (Homo sapiens) (UniProt Q8N5S9); test: Inhibition of human recombinant CaMKK1 at 15 nM in presence of ATP by radiometric assay relative to control
[15] = molecular target: Casein kinase I isoform gamma-3 (Homo sapiens) (UniProt Q9Y6M4); test: Inhibition of human recombinant CK1g3 at 15 nM in presence of ATP by radiometric assay relative to control
[16] = molecular target: High affinity nerve growth factor receptor (Homo sapiens) (UniProt P04629); test: Inhibition of human recombinant TRKA at 15 nM related to control ULK1
[17] = molecular target: T2, Dual specificity mitogen-activated protein kinase kinase 6 (Homo sapiens) (UniProt P52564); test: Inhibition of human recombinant MAP2K6 at 15 nM related to control ULK1
T2 sequence (whole entry): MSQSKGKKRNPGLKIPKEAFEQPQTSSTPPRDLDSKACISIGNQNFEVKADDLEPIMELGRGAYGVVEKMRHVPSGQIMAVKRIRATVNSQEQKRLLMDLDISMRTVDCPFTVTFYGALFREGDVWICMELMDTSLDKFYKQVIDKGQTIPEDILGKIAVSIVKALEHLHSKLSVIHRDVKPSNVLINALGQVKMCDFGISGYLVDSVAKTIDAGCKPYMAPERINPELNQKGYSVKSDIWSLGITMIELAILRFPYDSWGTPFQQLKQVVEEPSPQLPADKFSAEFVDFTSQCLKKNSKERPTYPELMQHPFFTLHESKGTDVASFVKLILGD

[18] = molecular target: Serine/threonine-protein kinase PAK 2 (Homo sapiens) (UniProt Q13177); test: Inhibition of human recombinant PAK2 at 15 nM related to control ULK1
[19] = molecular target: Cyclin-dependent kinase 5 (Homo sapiens) (UniProt Q00535); test: Inhibition of human recombinant CDK5 at 40 nM in presence of ATP by radiometric assay relative to control
[20] = molecular target: Receptor tyrosine-protein kinase erbB-4 (Homo sapiens) (UniProt Q15303); test: Inhibition of human recombinant ErbB4 at 40 nM related to control ULK1
[21] = molecular target: T3, Testis-specific serine/threonine-protein kinase 1 (Homo sapiens) (UniProt Q9BXA7); test: Inhibition of human recombinant TSSK1 at 40 nM in presence of ATP by radiometric assay relative to control
T3 sequence (whole entry): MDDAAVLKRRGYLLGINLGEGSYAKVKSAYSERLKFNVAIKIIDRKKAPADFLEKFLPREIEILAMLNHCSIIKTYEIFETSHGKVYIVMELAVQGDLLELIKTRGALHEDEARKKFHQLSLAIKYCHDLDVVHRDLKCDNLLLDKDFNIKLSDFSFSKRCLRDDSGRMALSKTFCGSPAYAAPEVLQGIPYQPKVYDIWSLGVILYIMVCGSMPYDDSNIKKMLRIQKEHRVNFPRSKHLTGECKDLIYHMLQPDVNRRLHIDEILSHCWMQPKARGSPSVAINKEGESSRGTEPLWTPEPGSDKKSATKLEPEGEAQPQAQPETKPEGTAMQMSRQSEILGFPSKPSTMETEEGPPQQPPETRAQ

[22] = molecular target: SRSF protein kinase 3 (Homo sapiens) (UniProt Q9UPE1); test: Inhibition of human recombinant MSSK1 at 40 nM related to control ULK1
[23] = molecular target: Serine/threonine-protein kinase D2 (Homo sapiens) (UniProt Q9BZL6); test: Inhibition of human recombinant PKD2 at 40 nM in presence of ATP by radiometric assay relative to control

Chain of Receptor tyrosine-protein kinase erbB-4 (Homo sapiens) (Q15303 whole entry): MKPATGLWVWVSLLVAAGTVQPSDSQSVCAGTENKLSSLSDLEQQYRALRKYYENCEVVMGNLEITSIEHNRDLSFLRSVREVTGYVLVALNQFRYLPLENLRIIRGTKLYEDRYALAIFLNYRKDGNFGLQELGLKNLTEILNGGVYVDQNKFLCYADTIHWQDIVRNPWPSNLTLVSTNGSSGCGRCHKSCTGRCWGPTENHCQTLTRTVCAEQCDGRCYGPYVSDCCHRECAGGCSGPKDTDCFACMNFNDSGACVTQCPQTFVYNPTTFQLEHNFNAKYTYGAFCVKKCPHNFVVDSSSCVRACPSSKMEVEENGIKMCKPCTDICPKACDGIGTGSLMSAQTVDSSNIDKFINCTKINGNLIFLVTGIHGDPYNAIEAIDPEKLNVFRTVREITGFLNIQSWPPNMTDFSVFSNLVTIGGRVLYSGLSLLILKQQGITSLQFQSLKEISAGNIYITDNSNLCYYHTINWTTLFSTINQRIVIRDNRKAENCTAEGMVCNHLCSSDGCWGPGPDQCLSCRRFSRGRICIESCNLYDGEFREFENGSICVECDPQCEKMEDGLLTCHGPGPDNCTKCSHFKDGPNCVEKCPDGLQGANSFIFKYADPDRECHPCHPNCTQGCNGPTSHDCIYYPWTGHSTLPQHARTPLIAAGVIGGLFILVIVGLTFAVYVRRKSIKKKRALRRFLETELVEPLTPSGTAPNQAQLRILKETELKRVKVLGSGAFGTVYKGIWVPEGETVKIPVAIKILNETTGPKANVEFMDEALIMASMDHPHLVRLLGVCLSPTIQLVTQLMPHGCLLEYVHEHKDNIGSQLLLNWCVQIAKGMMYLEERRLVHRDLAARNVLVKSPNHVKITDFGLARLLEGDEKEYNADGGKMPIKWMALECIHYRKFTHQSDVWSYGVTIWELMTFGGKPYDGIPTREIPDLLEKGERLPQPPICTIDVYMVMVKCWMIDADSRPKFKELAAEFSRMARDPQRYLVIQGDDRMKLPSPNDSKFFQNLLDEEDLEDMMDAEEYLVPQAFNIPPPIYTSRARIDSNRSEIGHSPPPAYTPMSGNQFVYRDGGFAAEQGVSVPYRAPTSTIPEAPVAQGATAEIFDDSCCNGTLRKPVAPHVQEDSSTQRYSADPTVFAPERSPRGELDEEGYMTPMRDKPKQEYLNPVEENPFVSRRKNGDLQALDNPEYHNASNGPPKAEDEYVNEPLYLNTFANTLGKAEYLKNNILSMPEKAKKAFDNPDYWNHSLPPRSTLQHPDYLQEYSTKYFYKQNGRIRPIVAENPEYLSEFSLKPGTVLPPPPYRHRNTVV
Chain of Tyrosine-protein kinase Tec (Homo sapiens) (P42680 whole entry, looked up): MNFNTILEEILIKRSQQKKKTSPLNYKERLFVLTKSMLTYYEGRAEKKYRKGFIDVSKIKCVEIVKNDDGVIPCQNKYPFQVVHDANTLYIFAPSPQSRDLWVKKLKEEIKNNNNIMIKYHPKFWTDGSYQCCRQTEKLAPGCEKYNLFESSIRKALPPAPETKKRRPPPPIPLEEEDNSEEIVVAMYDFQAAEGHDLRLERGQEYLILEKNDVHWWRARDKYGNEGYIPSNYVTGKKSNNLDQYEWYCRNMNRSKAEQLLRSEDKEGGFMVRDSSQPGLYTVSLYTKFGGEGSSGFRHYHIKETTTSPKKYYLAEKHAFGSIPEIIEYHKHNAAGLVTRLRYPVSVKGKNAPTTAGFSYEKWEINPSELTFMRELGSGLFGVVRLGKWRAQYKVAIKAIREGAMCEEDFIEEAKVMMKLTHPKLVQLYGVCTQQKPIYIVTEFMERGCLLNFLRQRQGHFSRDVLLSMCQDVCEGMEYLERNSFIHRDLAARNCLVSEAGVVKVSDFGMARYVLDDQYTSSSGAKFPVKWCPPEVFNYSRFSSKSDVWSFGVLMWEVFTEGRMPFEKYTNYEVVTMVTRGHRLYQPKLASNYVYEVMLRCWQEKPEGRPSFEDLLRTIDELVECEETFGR
Chain of Mitogen-activated protein kinase kinase kinase 9 (Homo sapiens) (P80192 whole entry, looked up): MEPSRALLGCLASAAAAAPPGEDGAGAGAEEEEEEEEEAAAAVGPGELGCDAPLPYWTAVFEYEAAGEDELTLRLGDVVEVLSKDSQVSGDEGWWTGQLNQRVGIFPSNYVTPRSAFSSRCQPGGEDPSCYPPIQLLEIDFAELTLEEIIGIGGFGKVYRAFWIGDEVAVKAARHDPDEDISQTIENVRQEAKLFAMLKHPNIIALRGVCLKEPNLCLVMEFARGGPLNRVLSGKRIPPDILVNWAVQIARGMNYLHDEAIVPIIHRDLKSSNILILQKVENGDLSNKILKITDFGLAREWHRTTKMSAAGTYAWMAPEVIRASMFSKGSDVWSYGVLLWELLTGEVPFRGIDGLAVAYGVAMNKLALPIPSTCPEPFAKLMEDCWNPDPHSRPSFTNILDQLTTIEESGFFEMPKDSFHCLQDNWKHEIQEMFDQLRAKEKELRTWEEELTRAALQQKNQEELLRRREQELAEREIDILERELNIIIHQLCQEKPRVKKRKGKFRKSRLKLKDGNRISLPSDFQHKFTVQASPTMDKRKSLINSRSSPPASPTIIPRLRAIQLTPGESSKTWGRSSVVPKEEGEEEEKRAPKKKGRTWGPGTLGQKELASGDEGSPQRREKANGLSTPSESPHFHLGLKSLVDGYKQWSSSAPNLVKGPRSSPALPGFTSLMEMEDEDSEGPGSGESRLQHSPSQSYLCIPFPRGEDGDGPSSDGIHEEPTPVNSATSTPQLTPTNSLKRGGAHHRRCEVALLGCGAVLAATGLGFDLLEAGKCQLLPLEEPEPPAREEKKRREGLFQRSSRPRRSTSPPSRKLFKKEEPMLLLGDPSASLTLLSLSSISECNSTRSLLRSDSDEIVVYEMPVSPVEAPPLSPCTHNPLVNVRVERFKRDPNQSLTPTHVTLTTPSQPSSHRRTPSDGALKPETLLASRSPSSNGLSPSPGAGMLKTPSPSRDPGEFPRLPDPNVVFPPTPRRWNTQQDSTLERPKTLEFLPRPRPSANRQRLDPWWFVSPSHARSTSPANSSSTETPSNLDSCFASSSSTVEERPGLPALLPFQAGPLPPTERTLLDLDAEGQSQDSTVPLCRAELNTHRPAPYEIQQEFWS
Chain of Casein kinase I isoform gamma-3 (Homo sapiens) (Q9Y6M4 whole entry, looked up, canonical isoform): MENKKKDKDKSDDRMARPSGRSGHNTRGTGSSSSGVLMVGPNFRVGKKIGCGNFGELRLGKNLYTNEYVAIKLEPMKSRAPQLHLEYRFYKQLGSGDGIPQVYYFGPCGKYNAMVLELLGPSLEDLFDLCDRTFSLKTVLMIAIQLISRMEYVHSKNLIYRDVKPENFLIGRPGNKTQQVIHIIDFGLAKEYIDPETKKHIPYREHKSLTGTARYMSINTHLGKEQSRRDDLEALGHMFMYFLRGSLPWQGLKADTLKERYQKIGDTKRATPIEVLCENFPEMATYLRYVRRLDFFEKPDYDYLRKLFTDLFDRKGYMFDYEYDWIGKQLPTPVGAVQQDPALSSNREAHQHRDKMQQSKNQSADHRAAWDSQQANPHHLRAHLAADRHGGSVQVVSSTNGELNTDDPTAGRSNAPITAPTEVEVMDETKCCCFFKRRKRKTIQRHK
Chain of High affinity nerve growth factor receptor (Homo sapiens) (P04629 33-796 limits assumed): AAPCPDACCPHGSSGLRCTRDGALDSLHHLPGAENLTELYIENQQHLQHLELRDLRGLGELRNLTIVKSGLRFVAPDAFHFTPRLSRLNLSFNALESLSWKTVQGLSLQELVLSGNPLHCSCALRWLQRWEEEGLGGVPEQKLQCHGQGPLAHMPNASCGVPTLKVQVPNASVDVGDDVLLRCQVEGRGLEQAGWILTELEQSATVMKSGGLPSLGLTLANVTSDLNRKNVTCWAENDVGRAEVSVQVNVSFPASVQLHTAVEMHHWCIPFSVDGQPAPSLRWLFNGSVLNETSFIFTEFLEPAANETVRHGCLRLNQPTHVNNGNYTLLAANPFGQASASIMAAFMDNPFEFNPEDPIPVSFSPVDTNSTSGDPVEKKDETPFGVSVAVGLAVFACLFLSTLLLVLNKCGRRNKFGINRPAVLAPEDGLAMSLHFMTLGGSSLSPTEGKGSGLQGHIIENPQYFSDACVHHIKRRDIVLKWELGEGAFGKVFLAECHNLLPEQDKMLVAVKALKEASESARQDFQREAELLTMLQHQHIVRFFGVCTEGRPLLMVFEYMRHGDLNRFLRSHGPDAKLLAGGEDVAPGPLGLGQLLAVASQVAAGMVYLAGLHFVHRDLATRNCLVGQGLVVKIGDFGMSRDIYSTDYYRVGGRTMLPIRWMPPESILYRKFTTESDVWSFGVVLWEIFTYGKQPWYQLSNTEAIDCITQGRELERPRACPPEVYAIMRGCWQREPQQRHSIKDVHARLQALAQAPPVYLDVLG
Chain of Cyclin-dependent kinase 18 (Homo sapiens) (Q07002 whole entry): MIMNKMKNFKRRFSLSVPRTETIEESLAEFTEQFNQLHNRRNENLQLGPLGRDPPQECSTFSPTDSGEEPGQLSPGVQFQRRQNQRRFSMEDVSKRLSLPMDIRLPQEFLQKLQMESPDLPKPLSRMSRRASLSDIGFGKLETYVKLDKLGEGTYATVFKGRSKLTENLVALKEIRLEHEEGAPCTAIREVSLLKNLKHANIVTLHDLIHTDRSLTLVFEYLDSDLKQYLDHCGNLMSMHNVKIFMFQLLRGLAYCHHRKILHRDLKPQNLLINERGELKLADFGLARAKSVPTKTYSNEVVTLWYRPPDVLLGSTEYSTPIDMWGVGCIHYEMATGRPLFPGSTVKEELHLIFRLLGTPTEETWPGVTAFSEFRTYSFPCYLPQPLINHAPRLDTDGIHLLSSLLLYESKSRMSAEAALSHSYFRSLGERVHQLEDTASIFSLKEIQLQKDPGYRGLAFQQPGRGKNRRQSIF
Chain of Cyclin-dependent kinase 5 (Homo sapiens) (Q00535 whole entry, looked up): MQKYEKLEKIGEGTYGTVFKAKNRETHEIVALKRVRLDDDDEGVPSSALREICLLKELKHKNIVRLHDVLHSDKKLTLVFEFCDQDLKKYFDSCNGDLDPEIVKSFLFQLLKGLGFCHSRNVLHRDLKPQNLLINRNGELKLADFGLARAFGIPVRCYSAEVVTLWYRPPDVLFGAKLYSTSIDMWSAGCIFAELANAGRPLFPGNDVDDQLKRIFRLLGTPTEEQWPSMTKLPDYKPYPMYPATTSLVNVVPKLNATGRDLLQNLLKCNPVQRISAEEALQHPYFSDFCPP

**Q.** For `CNC(=O)c1ccccc1Oc1nc(Nc2cc(OC)c(OC)c(OC)c2)ncc1Br`, which inhibition [1] is on record?
**A.** 5%

**Q.** And the inhibition [2]?
**A.** 0%

**Q.** And the inhibition [3]?
**A.** 87%

**Q.** And the fold change (FC) [4]?
**A.** 0.01

**Q.** What about the fold change (FC) [5] of the same compound?
**A.** 0.03

**Q.** What about the fold change (FC) [6] of the same compound?
**A.** 0.27

**Q.** And the fold change (FC) [7]?
**A.** 0

**Q.** What about the fold change (FC) [8] of the same compound?
**A.** 0.42

**Q.** What about the inhibition [9] of the same compound?
**A.** 0%

**Q.** What about the inhibition [10] of the same compound?
**A.** 2%

**Q.** What about the fold change (FC) [11] of the same compound?
**A.** 0.03

**Q.** For `CC(C)[C@H](NC(=O)c1cc(-c2cnn3cc(-c4ccc(OCCN5CCCCC5)cc4)cnc23)cs1)C(F)(F)F`, which inhibition [12] is on record?
**A.** 5%

**Q.** And the fold change (FC) [13]?
**A.** 0.01

**Q.** And the inhibition [14]?
**A.** 0%

**Q.** What about the inhibition [15] of the same compound?
**A.** 3%

**Q.** And the fold change (FC) [16]?
**A.** 0

**Q.** And the fold change (FC) [17]?
**A.** 0.06

**Q.** And the fold change (FC) [18]?
**A.** 0

**Q.** How did the inhibition [19] turn out when `O=C(N[C@@H](C1CC1)C(F)(F)F)c1cc(-c2cnn3cc(-c4ccc(F)cc4)cnc23)cs1` was run?
**A.** 47%

**Q.** What about the fold change (FC) [20] of the same compound?
**A.** 0

**Q.** And the inhibition [21]?
**A.** 0%

**Q.** What about the fold change (FC) [22] of the same compound?
**A.** 0.18

**Q.** What about the inhibition [23] of the same compound?
**A.** 6%
